#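 Growth conditions: 96-well plates. Treatment: test compound, 48 hours, 5 concentrations. Analysis: linear interpolation between bracketing concentrations; unreached endpoints set to highest concentration. Here, GI50 denotes the concentration required for 50% inhibition of growth. TGI is the concentration that stops growth completely.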
# Key:
# Assay in all cases: growth of human tumour cells (NCI), 48 h
# SNB-75 CNS = test system: SNB-75 CNS
# UACC-62 melanoma = test system: UACC-62 melanoma
# CCRF-CEM leukemia = test system: CCRF-CEM leukemia
# TK-10 renal = test system: TK-10 renal
# NCI-H226 lung = test system: NCI-H226 lung
# ACHN renal = test system: ACHN renal
# SR leukemia = test system: SR leukemia
# RPMI-8226 leukemia = test system: RPMI-8226 leukemia
# UO-31 renal = test system: UO-31 renal
# NCI-H23 lung = test system: NCI-H23 lung
SMILES,TGI (SNB-75 CNS),TGI (UACC-62 melanoma),TGI (CCRF-CEM leukemia),TGI (TK-10 renal),TGI (NCI-H226 lung),TGI (ACHN renal),TGI (SR leukemia),TGI (RPMI-8226 leukemia),TGI (UO-31 renal),GI50 (SNB-75 CNS),GI50 (UACC-62 melanoma),GI50 (CCRF-CEM leukemia),GI50 (TK-10 renal),GI50 (NCI-H226 lung),GI50 (NCI-H23 lung),TGI (NCI-H23 lung),GI50 (ACHN renal),GI50 (SR leukemia),GI50 (RPMI-8226 leukemia),GI50 (UO-31 renal)
COc1cc2c(c(OC)c1OC)-c1ccc(SC)c(=O)cc1[C@@H](NC(=O)c1ccc(Cl)cc1)CC2,> 100 µM,56.3 µM,> 100 µM,> 100 µM,< 0.01 µM,> 100 µM,> 100 µM,95.3 µM,62.6 µM,–,–,–,–,–,–,–,–,–,–,–
O=c1[nH]c2ccccc2n1-c1n[nH]c2ccccc12,> 100 µM,96.7 µM,> 100 µM,> 100 µM,55.4 µM,> 100 µM,73.1 µM,64.6 µM,> 100 µM,41.9 µM,33.6 µM,15.2 µM,40.7 µM,18.9 µM,38.5 µM,> 100 µM,29.9 µM,18.1 µM,17.6 µM,12.5 µM
CC1CC[C@]2(C(=O)O)CCC3(C)C(=CCC4[C@@]5(C)CC[C@H](OS(=O)(=O)c6ccccc6)C(C)(C)C5CC[C@]43C)[C@@H]2[C@H]1C (some centres undefined),> 100 µM,> 100 µM,> 100 µM,> 100 µM,> 100 µM,> 100 µM,> 100 µM,> 100 µM,> 100 µM,–,–,–,–,–,–,> 100 µM,–,–,–,–
O=C(Nc1ccccc1C(=O)N/N=C(\c1ccccc1)c1ccccn1)c1ccc(F)cc1,> 100 µM,2.03 µM,> 100 µM,> 100 µM,–,–,> 100 µM,> 100 µM,7.25 µM,4.81 µM,0.308 µM,0.121 µM,0.408 µM,0.366 µM,0.595 µM,> 100 µM,0.127 µM,0.142 µM,0.51 µM,0.0828 µM
CC(=O)Oc1ccc(/C=N/NC(N)=S)nc1,> 100 µM,> 100 µM,9.43 µM,> 100 µM,74.3 µM,> 100 µM,> 100 µM,> 100 µM,14.1 µM,11.7 µM,4.36 µM,2.58 µM,47.8 µM,22.1 µM,2.39 µM,> 100 µM,3.49 µM,1.51 µM,9.43 µM,3.51 µM
Oc1ccc(Cl)cc1Cc1cc(Cl)ccc1O,24.2 µM,10.5 µM,9.79 µM,11.3 µM,14.4 µM,11.3 µM,35.8 µM,5.1 µM,6.48 µM,4.09 µM,2.77 µM,2.43 µM,3.65 µM,3.28 µM,2.04 µM,5.79 µM,3.33 µM,4.45 µM,1.53 µM,2.06 µM
Cc1cc(Cl)ccc1NS(=O)(=O)c1ccc(-c2cnc(C3CC3)o2)cc1,0.667 µM,17.1 µM,38.3 µM,31.1 µM,16.5 µM,20.5 µM,28.4 µM,23.1 µM,16.9 µM,0.153 µM,0.169 µM,0.239 µM,11.8 µM,1.04 µM,0.556 µM,17.5 µM,0.649 µM,0.0967 µM,0.343 µM,0.619 µM
CC1=C(C(=O)Nc2ccc(Cl)c(Cl)c2)C(c2ccccc2O)NC(=O)N1 (centres undefined),> 50 µM,> 50 µM,> 50 µM,> 50 µM,> 50 µM,> 50 µM,> 50 µM,> 50 µM,> 50 µM,25.9 µM,35.1 µM,> 50 µM,22.1 µM,21.3 µM,–,–,> 50 µM,39.9 µM,34.8 µM,> 50 µM
N#CC1C=Cc2ccccc2N1C(=O)Oc1ccccc1 (centres undefined),> 100 µM,> 100 µM,81.6 µM,> 100 µM,> 100 µM,> 100 µM,> 100 µM,61.3 µM,> 100 µM,–,–,–,–,–,–,> 100 µM,–,–,–,–
COC(=O)/C(=N/NC(N)=O)C(C(=O)OC)C(=O)C(=O)Nc1ccc(Cl)cc1 (centres undefined),> 100 µM,> 100 µM,> 75.5 µM,> 100 µM,> 100 µM,> 100 µM,46.5 µM,> 100 µM,> 100 µM,–,–,–,–,–,–,> 100 µM,–,–,–,–
COc1cc(/C=C(\C#N)C(N)=C(C#N)C#N)cc(O)c1O,> 100 µM,> 100 µM,> 81.1 µM,> 100 µM,> 100 µM,> 100 µM,> 100 µM,> 100 µM,> 100 µM,–,–,–,–,–,–,> 100 µM,–,–,–,–
COc1cnc2cc(C(=O)O)c3ccccc3c2c1,> 100 µM,> 100 µM,> 100 µM,> 100 µM,> 100 µM,> 100 µM,> 100 µM,> 100 µM,> 100 µM,–,–,–,–,–,–,> 100 µM,–,–,–,–
COc1cccc(/C=C/C(=O)c2cc3c(N)c(C(=O)Nc4cccc5ccccc45)sc3nc2C)c1,3.15 µM,4.74 µM,> 50 µM,> 50 µM,3.27 µM,4.36 µM,> 50 µM,2.73 µM,2.08 µM,1.02 µM,1.09 µM,0.256 µM,1.78 µM,1.2 µM,1.96 µM,> 50 µM,1.23 µM,0.296 µM,0.461 µM,0.889 µM
CCOC(=O)C1COc2cc(-c3cc(=O)c4ccccc4o3)ccc2O1 (centres undefined),> 100 µM,> 100 µM,> 100 µM,> 100 µM,–,> 100 µM,> 100 µM,–,76.8 µM,–,–,–,–,–,–,> 100 µM,–,–,–,–
O=c1cc(-c2ccccn2)[nH]c2ccc(Cl)cc12,> 100 µM,> 100 µM,> 100 µM,> 100 µM,> 100 µM,> 100 µM,> 100 µM,> 100 µM,> 100 µM,–,–,–,–,46.5 µM,–,> 100 µM,–,–,–,–
COc1cc([N+](=O)[O-])c2ncccc2c1[N+](=O)[O-],18 µM,25.1 µM,28.6 µM,19.6 µM,31.5 µM,16.5 µM,> 100 µM,26.5 µM,–,3.77 µM,12 µM,3.44 µM,7.04 µM,15.3 µM,3.91 µM,16.1 µM,4.75 µM,3.33 µM,6.15 µM,–
CC(=O)Oc1ccc2c(c1)CC[C@@H]1C2CC[C@]2(C)C(=O)NC(=O)CC12 (some centres undefined),> 100 µM,> 100 µM,> 100 µM,> 100 µM,> 100 µM,> 100 µM,> 100 µM,–,> 100 µM,–,–,–,–,–,–,> 100 µM,–,–,–,–
C/C(CC(=O)N(C(C)C)C(C)C)=N\NC(=O)c1ccncc1,> 100 µM,> 100 µM,> 100 µM,–,> 100 µM,> 100 µM,> 100 µM,> 100 µM,> 100 µM,–,–,–,–,–,–,> 100 µM,–,–,–,–
OCNCCNc1nc2ccccc2c2[nH]c3ccccc3c12,11.6 µM,7.5 µM,–,9.89 µM,5.88 µM,2.24 µM,> 50 µM,2.01 µM,> 50 µM,2.28 µM,2 µM,–,1.76 µM,1.47 µM,0.772 µM,2.69 µM,0.38 µM,0.902 µM,0.84 µM,2.98 µM
COC(=O)c1c(C)nc(C)c(NO)c1-c1ccccc1C(F)(F)F,–,> 100 µM,> 100 µM,37.4 µM,76.7 µM,71.6 µM,> 100 µM,70.6 µM,74.2 µM,–,–,–,–,–,–,84.3 µM,–,–,–,–
CCOP(=O)(Nc1ccc2oc(=O)c3ccccc3c2c1)OCC,> 100 µM,> 100 µM,> 100 µM,> 100 µM,> 100 µM,> 100 µM,> 100 µM,98.2 µM,–,–,–,–,–,–,–,> 100 µM,–,–,–,–
C#CCN(Cc1ccc2nc(N)[nH]c(=O)c2c1)c1ccc(C(=O)NC(CCC(=O)O)C(=O)O)cc1 (centres undefined),–,–,> 100 µM,> 100 µM,> 100 µM,> 100 µM,> 100 µM,> 100 µM,> 100 µM,–,–,–,–,–,–,> 100 µM,–,–,–,–
Cc1cc(C(O)CN(C)C)cc2c1ccc1cc(C(C)C)ccc12 (centres undefined),3.67 µM,–,5.65 µM,3.36 µM,8.84 µM,3.65 µM,5.21 µM,5.12 µM,3.72 µM,1.72 µM,–,2.48 µM,1.77 µM,2.66 µM,2.85 µM,10.6 µM,1.87 µM,1.96 µM,2.36 µM,1.58 µM
Cc1nc(N)nc2ccccc12,> 100 µM,> 100 µM,> 100 µM,> 100 µM,–,> 100 µM,> 100 µM,> 100 µM,> 100 µM,–,–,–,–,–,–,> 100 µM,–,–,–,–
O=C1CN(/N=C/c2ccc(-c3ccc(F)cc3)o2)C(=O)N1,–,> 100 µM,> 100 µM,> 100 µM,88.5 µM,> 100 µM,75.7 µM,> 100 µM,> 100 µM,–,–,–,–,–,–,> 100 µM,–,–,–,–
CO[C@@]12[C@@H]3NC3CN1C1=C(C(=O)C(N)=C(C)C1=O)[C@@H]2COC(N)=O (some centres undefined),–,–,> 63.5 µM,5.85 µM,2.78 µM,1.63 µM,> 100 µM,27.8 µM,3.04 µM,–,–,0.296 µM,1.68 µM,0.504 µM,–,1.46 µM,–,0.0325 µM,1.84 µM,0.465 µM
